One data set relates to M. tuberculosis H37Rv. Put plainly: Antimycobacterial activity: MIC by broth microdilution / Nitrate Reductase Assay. The class given is cell-based, Mycobacterium tuberculosis. Particulars: lowest concentration showing no colour change (NRA).
The next data set has as its system AML-12 cell lines. Put plainly: Cytotoxicity MTT assay on AML-12 cell lines. The class given is cell-based. Particulars: for Cytotoxicity: AML-12 cell line, MTT, 24 hrs, test material 2-100 μg/ml; for Cytotoxicity (result in words): AML-12 cell lines, MTT assay. The method, then: The potent compounds 3j, 4e, 6a, 6f, 6g, 6i, and 6p were evaluated for cytotoxic effect on AML-12 cell lines using MTT assay, in a 96 well plate format. Cells were incubated in Dulbecco's Modified Eagle's Medium (DMEM) containing 10% fetal calf serum (FCS) with the test material (2-100 μg/ml) for 24 hrs. at 37° C. in CO2 incubator. After the completion of incubation 3-(4,5-dimethylthiazol-2-yl)-2,5-diphenyltetrazolium bromide (MTT) was added and cells were further incubated for 3 h at 37° C. in CO2 incubator. Formation of formazan salt by mitochondrial dehydrogenases, and was determined by Elisa reader at 565 nm (Multiskan Spectrum; Thermo Electron Corporation, USA). The percentage cytotoxicity was calculated with respect to the untreated cells.

In another data set the test system is M. tuberculosis (H37Rv). As to the kind of experiment: In vivo efficacy in lungs of infected mice. Particulars: for In vivo activity (result in words) / Decrease of bacterial load in lung with late control (protections): mice; for In vivo activity (result in words): lung; for Decrease of bacterial load in lung with late control (protections): versus late control; for Log10 CFU/left Lung: infected female Swiss albino mice. Also on record: species or system Swiss albino mice.

Setting [1] is: Mycobacterium tuberculosis, H37RV, read-out: MIC.
Setting [2] is: Mycobacterium tuberculosis, H37RV.

In brackets after ≈: the same amount, converted by molar mass. Read-outs that look alike come from different tables or passages of the source.

As usually defined, the MIC is the lowest concentration that inhibits growth of the organism. With `COc1ccc2nc(NNC(=O)c3ccc([N+](=O)[O-])o3)sc2c1` [Compound 4c, N′2-(6-methoxy-1,3-benzothiazol-2-yl)-5-nitro-2-furancarbohydrazide], in the data set with M. tuberculosis H37Rv (setting [1]), the MIC is more than 16 µg/mL. For `O=C(NNc1nc2ccc([N+](=O)[O-])cc2s1)c1ccc([N+](=O)[O-])o1` [Compound 4h, N′2-(6-nitro-1,3-benzothiazol-2-yl)-5-nitro-2-furanecarbohydrazide], 16 µg/mL (≈ 45.8 µM) was the least that counted as inhibitory in the data set on M. tuberculosis H37Rv (setting [2]) (MIC). In the data set with M. tuberculosis H37Rv (setting [2]), `O=[N+]([O-])c1ccc2nc(NN=Cc3ccc([N+](=O)[O-])s3)sc2c1` [Compound 3p, 5-nitro-2-thiophenecarbaldehyde 2-(6-nitro-1,3-benzothiazole-2-yl)hydrazone] returned an MIC of more than 16 µg/mL. As for `COc1ccc2nc(NN=Cc3ccc([N+](=O)[O-])o3)sc2c1` [Compound 3e, 5-nitro-2-furaldehyde 2-(6-methoxy-1,3-benzothiazole-2-yl)hydrazone], the MIC with M. tuberculosis H37Rv (setting [1]) is more than 16 µg/mL. On to `O=[N+]([O-])c1ccc(C=NNc2nc3ccc(F)cc3s2)s1` [Compound 3l, 5-nitro-2-thiophenecarbaldehyde 2-(6-fluoro-1,3-benzothiazole-2-yl)hydrazone], for which, in the data set on M. tuberculosis H37Rv (setting [1]), the MIC was more than 16 µg/mL. For `O=[N+]([O-])c1ccc(C=NNc2nc3ccc(OC(F)(F)F)cc3s2)s1` [Compound 3j, 5-nitro-2-thiophenecarbaldehyde 2-(6-trifluoromethoxy-1,3-benzothiazole-2-yl)hydrazone], in the data set on M. tuberculosis H37Rv (setting [1]), the MIC was 0.5 to 8 µg/mL (≈ 1.29 to 20.6 µM). Besides, the “MIC” value against M. tuberculosis H37Rv was determined as 1 µg/mL (≈ 2.57 µM). Moreover, in the data set with AML-12 cell lines, the Cytotoxicity was more than 100 µg/mL and the “Cytotoxicity (result in words)” value is given as “no cytotoxicity”.

As to `O=[N+]([O-])c1ccc(C=NNc2nc3ccc(C(F)(F)F)cc3s2)o1` [Compound 3g, 5-nitro-2-furaldehyde 2-(6-trifluoromethyl-1,3-benzothiazole-2-yl)hydrazone], in the data set with M. tuberculosis H37Rv (setting [1]), the MIC is more than 16 µg/mL. Same read-out and setting: for `O=C(NNc1nc2ccccc2s1)c1ccc([N+](=O)[O-])o1` [Compound 4a, N′2-(1,3-benzothiazol-2-yl)-5-nitro-2-furancarbohydrazide] the value was more than 16 µg/mL.

With `O=[N+]([O-])c1ccc(C=NNc2nc3ccc(C(F)(F)F)cc3s2)s1` [Compound 3h, 5-nitro-2-thiophenecarbaldehyde 2-(6-trifluoromethyl-1,3-benzothiazole-2-yl)hydrazone], in the data set with M. tuberculosis H37Rv (setting [1]), the MIC is more than 16 µg/mL. With `O=C(NNc1nc2ccc(C(F)(F)F)cc2s1)c1ccc([N+](=O)[O-])o1` [Compound 4d, N′2-(6-trifluoromethyl-1,3-benzothiazol-2-yl)-5-nitro-2-furancarbohydrazide], the MIC in the data set with M. tuberculosis H37Rv (setting [1]) is more than 16 µg/mL.

On to `O=C(Nc1nc2ccc(NC(=O)c3ccc([N+](=O)[O-])o3)cc2s1)c1cnccn1` [Compound 6p, N2-(6-{[(5-nitro-2-furyl)carbonyl]amino}-1,3-benzothiazol-2-yl)-2-pyrazinecarboxamide], for which the “MIC” value in the data set on M. tuberculosis H37Rv is 1 µg/mL (≈ 2.44 µM). Besides, in the data set on AML-12 cell lines, the Cytotoxicity is more than 100 µg/mL and the “Cytotoxicity (result in words)” value is reported as “no cytotoxicity”. Take “N2-(2-{[(E)-3-(4-chlorophenyl)-2-propenoyl]amino}-1,3-benzothiazol-6-yl)-5-nitro-2-furamide [Compound 6w]”: in the data set on AML-12 cell lines, the Cytotoxicity is more than 100 µg/mL and the “Cytotoxicity (result in words)” value is given as “no cytotoxicity”. With “N2-(2-{[(E)-3-phenyl-2-propenoyl]amino}-1,3-benzothiazol-6-yl}-5-nitro-2-furamide [Compound 6q]”, in the data set with M. tuberculosis H37Rv, the “MIC” value was found to be 8.0 µg/mL. In addition, in the data set on AML-12 cell lines, the Cytotoxicity was more than 100 µg/mL and the “Cytotoxicity (result in words)” value is recorded as “no cytotoxicity”.

With `O=[N+]([O-])c1ccc(C=NNc2nc3ccc(Cl)cc3s2)o1` [Compound 3m, 5-nitro-2-furaldehyde 2-(6-chloro-1,3-benzothiazole-2-yl)hydrazone], the MIC in the data set on M. tuberculosis H37Rv (setting [1]) worked out at 16 µg/mL (≈ 49.6 µM).

Take `NNC(=O)c1ccncc1` [INH, Isoniazid, reference compound]: in the data set on M. tuberculosis H37Rv (setting [1]), the MIC was found to be 0.5 µg/mL (≈ 3.65 µM). In the case of `O=[N+]([O-])c1ccc(C=NNc2nc3ccc(F)cc3s2)o1` [Compound 3k, 5-nitro-2-furaldehyde 2-(6-fluoro-1,3-benzothiazole-2-yl)hydrazone], the MIC in the data set on M. tuberculosis H37Rv (setting [1]) was more than 16 µg/mL. `O=C(NNc1nc2ccc(OC(F)(F)F)cc2s1)c1ccc([N+](=O)[O-])o1` [Compound 4e, N′2-(6-trifluoromethoxy-1,3-benzothiazol-2-yl)-5-nitro-2-furanecarbohydrazide]: in the data set on AML-12 cell lines, the Cytotoxicity was more than 100 µg/mL and the “Cytotoxicity (result in words)” value is listed as “no cytotoxicity”. On to `O=C(Nc1ccc2nc(NC(=O)c3ccc(F)cc3F)sc2c1)c1ccc([N+](=O)[O-])o1` [Compound 6i, N2-{2-[(2,4-difluorobenzoyl)amino]-1,3-benzothiazol-6-yl}-5-nitrofuramide], for which the minimum inhibitory concentration (MIC) in the data set on M. tuberculosis H37Rv was found to be 0.5 µg/mL (≈ 1.13 µM). For the same compound, in the data set on M. tuberculosis (H37Rv) (25 mg/kg), the “In vivo activity (result in words)” value is recorded as “bacteriostatic activities”, the “Decrease of bacterial load in lung with late control (protections)” value worked out at 1.0 and the “Log10 CFU/left Lung” value is reported as 6.3 ± 0.37. In addition, in the data set on AML-12 cell lines, the Cytotoxicity is more than 100 µg/mL and the “Cytotoxicity (result in words)” value was “no cytotoxicity”. Consider `O=[N+]([O-])c1ccc(C=NNc2nc3ccc(Cl)cc3s2)s1` [Compound 3n, 5-nitro-2-thiophenecarbaldehyde 2-(6-chloro-1,3-benzothiazole-2-yl)hydrazone], for which, in the data set with M. tuberculosis H37Rv (setting [1]), the minimum inhibitory concentration (MIC) is more than 16 µg/mL.

On to `O=[N+]([O-])c1ccc(C=NNc2nc3ccccc3s2)o1` [Compound 3a, 5-nitro-2-furaldehyde 2-(1,3-benzothiazole-2-yl)hydrazone], for which the MIC with M. tuberculosis H37Rv (setting [1]) is more than 16 µg/mL. For the compound `COc1ccc2nc(NN=Cc3ccc([N+](=O)[O-])s3)sc2c1` [Compound 3f, 5-nitro-2-thiophenecarbaldehyde 2-(6-methoxy-1,3-benzothiazole-2-yl)hydrazone], the MIC in the data set with M. tuberculosis H37Rv (setting [1]) is more than 16 µg/mL. Consider `O=C(Nc1nc2ccc(NC(=O)c3ccc([N+](=O)[O-])o3)cc2s1)c1ccc(Cl)cc1` [Compound 6g, N2-{2-[(4-chlorobenzoyl)amino]-1,3-benzothiazol-6-yl}-5-nitrofuramide], for which, in the data set with M. tuberculosis H37Rv, the “MIC” value came out at 0.5 µg/mL (≈ 1.13 µM). Moreover, in the data set with M. tuberculosis (H37Rv) (25 mg/kg), the “In vivo activity (result in words)” value is on record as “bacteriostatic activities”, the “Decrease of bacterial load in lung with late control (protections)” value was found to be 1.0 and the “Log10 CFU/left Lung” value was 6.1 ± 0.48. For the same compound, in the data set with AML-12 cell lines, the Cytotoxicity was more than 100 µg/mL and the “Cytotoxicity (result in words)” value is reported as “no cytotoxicity”.

For `O=[N+]([O-])c1ccc(C=NNc2nc3ccc(OC(F)(F)F)cc3s2)o1` [Compound 3i, 5-nitro-2-furaldehyde 2-(6-trifluoromethoxy-1,3-benzothiazole-2-yl)hydrazone], the MIC in the data set with M. tuberculosis H37Rv (setting [1]) was more than 16 µg/mL. Take `O=C(Nc1nc2ccc(NC(=O)c3ccc([N+](=O)[O-])o3)cc2s1)c1ccccc1` [Compound 6a, N2-[2-(benzoylamino)-1,3-benzothiazol-6-yl]-5-nitrofuramide]: the MIC in the data set with M. tuberculosis H37Rv (setting [1]) is 0.5 to 8 µg/mL (≈ 1.22 to 19.6 µM); in the data set on M. tuberculosis H37Rv, 1 µg/mL (≈ 2.45 µM). Besides, the Cytotoxicity in the data set with AML-12 cell lines was more than 100 µg/mL. Besides, the “Cytotoxicity (result in words)” value with AML-12 cell lines is on record as “no cytotoxicity”.

As to `O=C(NNc1nc2ccc(Cl)cc2s1)c1ccc([N+](=O)[O-])o1` [Compound 4g, N′2-(6-chloro-1,3-benzothiazol-2-yl)-5-nitro-2-furanecarbohydrazide], in the data set on M. tuberculosis H37Rv (setting [1]), the MIC is more than 16 µg/mL. With `Cc1ccc2nc(NNC(=O)c3ccc([N+](=O)[O-])o3)sc2c1` [Compound 4b, N′2-(6-methyl-1,3-benzothiazol-2yl)-5-nitro-2-furancarbohydrazide], in the data set with M. tuberculosis H37Rv (setting [1]), the MIC was more than 16 µg/mL. Same read-out and setting: for `Cc1ccc2nc(NN=Cc3ccc([N+](=O)[O-])s3)sc2c1` [Compound 3d, 5-nitro-2-thiophenecarbaldehyde 2-(6-methyl-1,3-benzothiazole-2-yl)hydrazone] the value was more than 16 µg/mL.

For the compound “N3-(6-{[(5-nitro-2-furyl)carbonyl]amino}-1,3-benzothiazol-2-yl)nicotinamide [Compound 6o]”, in the data set with M. tuberculosis H37Rv, the “MIC” value came out at 4.0 µg/mL. Further, in the data set with AML-12 cell lines, the Cytotoxicity is more than 100 µg/mL and the “Cytotoxicity (result in words)” value is “no cytotoxicity”. As to `Cc1ccc2nc(NN=Cc3ccc([N+](=O)[O-])o3)sc2c1` [Compound 3c, 5-nitro-2-furaldehyde 2-(6-methyl-1,3-benzothiazole-2-yl)hydrazone], the MIC in the data set on M. tuberculosis H37Rv (setting [1]) is more than 16 µg/mL. For the compound `O=[N+]([O-])c1ccc2nc(NN=Cc3ccc([N+](=O)[O-])o3)sc2c1` [Compound 3o, 5-nitro-2-furaldehyde 2-(6-nitro-1,3-benzothiazole-2-yl)hydrazone], in the data set with M. tuberculosis H37Rv (setting [2]), the MIC is 16 µg/mL (≈ 48 µM). Take `O=C(NNc1nc2ccc(F)cc2s1)c1ccc([N+](=O)[O-])o1` [Compound 4f, N′2-(6-fluoro-1,3-benzothiazol-2-yl)-5-nitro-2-furanecarbohydrazide]: the MIC with M. tuberculosis H37Rv (setting [1]) was more than 16 µg/mL.

As for `CO[C@H]1/C=C/O[C@@]2(C)Oc3c(C)c(O)c4c(O)c(c(/C=N/N5CCN(C)CC5)c(O)c4c3C2=O)NC(=O)/C(C)=C\C=C\[C@H](C)[C@H](O)[C@@H](C)[C@@H](O)[C@@H](C)[C@H](OC(C)=O)[C@@H]1C` [RMP, Rifampicin, reference compound], in the data set on M. tuberculosis H37Rv (setting [1]), the minimal inhibitory concentration (MIC) was found to be 0.25 µg/mL (≈ 0.304 µM). In addition, the “Log10 CFU/left Lung” value with M. tuberculosis (H37Rv) (20 mg/kg) is reported as 2.0 ± 0.41. In the case of `O=[N+]([O-])c1ccc(C=NNc2nc3ccccc3s2)s1` [Compound 3b, 5-nitro-2-thiophenecarbaldehyde 2-(1,3-benzothiazole-2-yl)hydrazone], the minimal inhibitory concentration (MIC) with M. tuberculosis H37Rv (setting [1]) is more than 16 µg/mL.

Source of the values: US9949970B2, “Synthesis of new benzothiazole derivatives as potential anti-tubercular agents” (priority 2010, dated 2018).
